Where no end group is shown, it is not given here.
What was measured:
[1] = molecular target: T1, binding of resistin and CAP1 (Homo sapiens, UniProt Q9HD89); assay: In vitro pull down assay of mFc-hResistin with CAP1 from THP-1 cell lysates (western blot with CAP1 antibody); conditions: for inhibition of binding of resistin and CAP1: each peptide at 50 μM, mFC-hResistin 1 μg/ml
T1 construct: host or cells: CAP1: endogenous, THP-1 cell lysate
T1 sequence (Q9HD89 19-108): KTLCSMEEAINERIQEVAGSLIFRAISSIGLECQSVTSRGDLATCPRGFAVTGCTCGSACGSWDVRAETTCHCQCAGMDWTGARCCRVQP
Method: THP-1 cells were lysed with lysis buffer (20 mM Tris pH 7.5, 150 mM NaCl, 1% Triton X-100, 0.25% sodium deoxycholate, 1 mM EDTA, 1 Mm NaF, 1 mM Na3VO4, and, protease inhibitor cocktail) to extract proteins. mFc-hResistin (0.5 ug) protein and VS_peptide (SEQ ID NO: 2) at 10 μM, 100 μM, and 500 μM were added to the extracted THP-1 protein (500 μg), followed by incubation at 4° C. overnight. mFC beads (20 μl) were added, and the protein complexes were pulled down at 4° C. for 3 hours, and then washed three times with lysis buffer. Then, SDS-PAGE sample buffer containing β-mercaptoethanol was added, followed by boiling at 100° C. for 5 minutes, and then a supernatant was obtained through centrifugation. It was investigated by western blotting using the hCAP1 antibody and mFc-HRP antibody whether the binding of hCAP1 and mFc-hResistin was inhibited by VS_peptide. Specifically, THP-1 cell lysates were treated with 1 μg/ml of mFC-hResistin, treated with VS_peptide (SEQ ID NO: 2) at 10 μM, 100 μM, and 500 μM each, and then pulled down using Fc beads. The proteins bound to beads were separated by SDS-PAGE, and subjected to western blotting using the CAP1 antibody. THP-1 cell lysates were treated with mFC-hResistin (1 μg/ml) and each of the peptides of SEQ ID NOS: 1 to 7 at 50 μM each, and pulled down using Fc beads. Thereafter, the proteins bound to Fc beads were separated by SDS-PAGE, and then subjected to western blotting using the CAP1 antibody.

[2] = test system: AMPK (phosphorylation of AMPK and ACC, LDLR expression); assay: AMPK activity by western blot in HepG2 cells treated with AICAR and resistin; assay type: cell-based; conditions: peptide 50 μM, compared with addition of only resistin
Method: To investigate the effect of VS_peptide (SEQ ID NO: 2) on AMPK activity, AMPK phosphorylation was compared between the addition of VS_peptide (SEQ ID NO: 2) and the addition of AA_peptide (SEQ ID NO: 3). To investigate the effect of VS_peptide (SEQ ID NO: 2) on AMPK activity, HepG2 cells were treated with AICAR to activate AMPK and treated with resistin, and the cells were treated with VS_peptide (SEQ ID NO: 2) and AA_peptide (SEQ ID NO: 3) at 50 μM each. The western blotting was performed to investigate AMPK activity in HepG2 cells through the phosphorylation of AMPK, the phosphorylation of ACC, which is a substrate of AMPK, and the expression level of LDLR.

[3] = test system: NF-κB (p65 phosphorylation); assay: NF-κB activity by p65 phosphorylation western blot in resistin-treated THP-1 cells; assay type: cell-based, human
Method: To investigate the effect of VS_peptide (SEQ ID NO: 2) on NF-κB activity, p65 phosphorylation was compared between the addition of VS_peptide (SEQ ID NO: 2) and the addition of AA_peptide (SEQ ID NO: 3). THP-1 cells were treated with resistin to activate NF-κB, and VS_peptide (SEQ ID NO: 2) and AA_peptide (SEQ ID NO: 3) were added, and then western blotting using the p-p65 antibody was performed for NF-κB activity.

[4] = test system: MDA-MB-231 cells; assay: Cell migration analysis of resistin-treated breast cancer cells; assay type: cell-based, human; conditions: MDA-MB-231, resistin 50 ng/ml, 30 μM and 50 μM, compared with AA_peptide
Method: MDA-MB-231 cells were suspended in DMEM medium (0.1% FBS), and then the suspension was added at a concentration of 1×10^5 cell/ml per well to uniformly spread throughout the upper chamber of 6-well Transwell. In the lower chamber, each of 50 μM VS_peptide (SEQ ID NO: 2) and AA_peptide (SEQ ID NO: 3) was mixed with DMEM medium (0.1% FBS), and resistin was added at 100 ng/ml. Thereafter, the cells were incubated in an incubator at 37° C. in 5% CO2 for 24 hours. The cells penetrating the Transwell were stained using Crystal violet staining, and then quantified using the Image J program.
MDA-MB-231 cells were suspended in DMEM medium, and then placed in 24-well plates at a concentration of 1×10^5 cell/ml per well. After 50 ng/ml of resistin was placed in each well, VS_peptide (SEQ ID NO: 2) and AA_peptide (SEQ ID NO: 3) were placed at 30 μM and 50 μM, respectively. Thereafter, the cells were incubated in an incubator at 37° C. and 5% CO2 for 6-15 hours. Thereafter, cell migration after 6 hours and 15 hours was observed using a microscope.

[5] = Peptide pharmacokinetics by PET imaging of radioisotope-labeled peptide; assay type: in vivo, mice; conditions: tail vein injection, PET images at 0-48 hours
Method: VS_peptide and albumin-conjugated VS_peptide were injected at 36-40 μCi per mouse into the tail vein of C57BL/6 normal mice. After the injection, PET images were acquired at intervals of 0, 1, 2, 4, 24, and 48 hours using the GENISYS[…] machine from Sofie Bioscience. After the image acquisition, pharmacokinetic data were obtained by monoexponential fitting using the image analysis program Amide.
To increase drug delivery efficiency and drug effect duration of VS_peptide (SEQ ID NO: 2), albumin was bound to the peptide. VS_peptide (SEQ ID NO: 2) and albumin-conjugated VS_peptide (SEQ ID NO: 2) were labeled with a radioisotope, and then injected at 36-40 uCi each into the tail vein of male mice aged 8 weeks. PET images were acquired at intervals of 0, 1, 2, 4, 24, and 48 hours, and kinetics of the peptide in the body were observed.

[6] = molecular target: T2, binding of resistin and CAP1 in THP-1 cells (Homo sapiens, UniProt Q9HD89); assay: Immunoprecipitation of resistin/CAP1 from treated THP-1 cells; assay type: cell-based; conditions: THP-1 cells treated with resistin and peptide for 12 hours
T2 construct: endogenous in cells; host or cells: THP-1 cells (CAP1 endogenous)
T2 sequence (Q9HD89 19-108): T1 sequence (Q9HD89 19-108)
Method: THP-1 cells were treated with resistin or resistin and a peptide for 12 hours, and then lysed with lysis buffer (20 mM Tris pH 7.5, 150 mM NaCl, 1% Triton X-100, 0.25% sodium deoxycholate, 1 mM EDTA, 1mM NaF, 1mM Na3VO4, and protease inhibitor cocktail). The resistin antibody or CAP1 antibody was added to the cell lysates, followed by immunoprecipitation at 4° C. for 3 hours. Mouse IgG was added for control. Protein A/G agarose beads were added to the THP-1 protein and CAP1 antibody complex, followed by incubation, and then through centrifugation, only beads were left and the supernatant was removed. Thereafter, the proteins bound to beads were separated by SDS-PAGE, and after electrophoresis, the gel was transferred onto the polyvinylidene fluoride (PVDF, Millipore), and then blocked with 5% skim milk at room temperature for 30 minutes. […] After the incubation, the membrane was sufficiently washed at least three times for 10 minutes each, and bands were detected using ECL detection kit (Invitrogen, WP20005), and then analyzed. […]

[7] = molecular target: T3, binding of resistin and CAP1 (rhCAP1, mFc-hResistin) (Homo sapiens, UniProt Q9HD89); assay: Competitive ELISA, mFc-hResistin binding to plate-coated rhCAP1
T3 sequence (Q9HD89 19-108): T1 sequence (Q9HD89 19-108)
Method: Each well of a 96-well plate were coated with hCAP1 protein at a concentration of 2.5 μg/ml for 12 hours (overnight) at room temperature. Each well was washed two times with phosphate buffered saline (PBS, pH7.4). Each well was blocked with a blocking buffer containing 3% BAS at room temperature for 1 hour. The blocking buffer containing 3% BSA was mixed with 5 ug/ml mFc-hResistin protein and VS_peptide [SEQ ID NO: 2] at various concentrations (10 uM, 30 uM, 100 uM), followed by pre-incubation at room temperature for 1 hour. After the blocking solution was removed from the 96-well plate, 100 μl of the pre-incubated mixture of mFc-hResistin protein and VS_peptide (SEQ ID NO: 2) was dispensed in each well, followed by incubation at room temperature for 2 hours. Upon the completion of the incubation, each well was washed two times with PBS. After the anti-mouse-Fc-HRP antibody was diluted in a blocking buffer containing 3% BSA at 1:1000, 100 μl of the diluted antibody was dispensed in each well, followed by incubation at room temperature for 1 hour. Upon the completion of the incubation, each well was washed two times with PBS. […] After 100 μl of a stop solution was dispensed in each well, and the absorbance was measured at 450 nm using an ELISA reader. […] The resistin bound to the HRP-conjugated mFc antibody was measured by ELISA at an absorbance of 450 nm.

Sequence	inhibition of binding of resistin and CAP1 [1]	expression level of LDLR [2]	phosphorylation of ACC [2]	phosphorylation of AMPK [2]	p65 phosphorylation induced by resistin [3]	further results
AAAAGAAAAAAATSSGSDES (Synthetic AAA peptide) [Proline rich regions and VS replaced with A]	allowed the strongest binding of resistin and CAP1	–	–	–	–	–
AAAAGPPPPPVSTSSGSDES (Synthetic pro1A peptide) [Proline rich-1 region replaced with A]	inhibited the binding of resistin and CAP1 at similar levels to the VS_peptide	–	–	–	–	–
GPPPPPVSTS (Synthetic pep10 peptide) [Shortened peptide based on VS and proline rich-1]	inhibited the binding of resistin and CAP1 at similar levels to the VS_peptide	–	–	–	–	–
PPPPGAAAAAVSTSSGSDES (Synthetic pro2A peptide) [Proline rich-2 region replaced with A]	inhibited the binding of resistin and CAP1 at similar levels to the VS_peptide	–	–	–	–	–
PPPPGPPPPPAATSSGSDES (Synthetic AA peptide) [AA_peptide, VS replaced with AA; used as control peptide, reference compound]	failed to inhibit	similar	not increased	not increased	not inhibited	–
PPPPGPPPPPVSTSSGSDES [VS_peptide]	effectively inhibited	increased	increased	increased	inhibited	amount of cell migration [4]: smaller; time the administered medicine remains in the body [5]: ≤ 4 h; binding of resistin and CAP1 in cells (bands in IP/western blot) [6]: no bands; OD value (450 nm) of resistin bound to CAP1 ([7]; addition of peptide vs non-addition, 10, 30, 100 uM, dose-dependent): decreased; inhibition at 100 µM ([7]; peptide at 100 μM, read-out: inhibitory effect on binding of resistin and CAP1): ~25%; amount of CAP1 binding to resistin ([1]; peptide at 10, 100 and 500 μM, dose-dependent): reduced

Reference: patent publication US11091515B2, “Polypeptide derived from CAP1 and pharmaceutical composition comprising same as effective ingredient” (Seoul National University Hospital, priority 2017, dated 2021)
